{"source": "patent US6803466B1", "about": "“HIV/FIV protease inhibitors having a small P3 residue” (The Scripps Research Institute, priority 1997, dated 2004)", "key": {"FIV PR": {"biological_target": "T1, FIV PR (Feline immunodeficiency virus, UniProt P16088, C122K/G43I/N93T)", "T1 construct": "made in house; host or cells: E. coli BL21(DE3)", "assay": "Inhibition of FIV PR (Ki, IC50)", "type": "biochemical", "protocol": "The solution was mixed and incubated for 10 minutes at 37° C. and the reaction quenched by addition of 8M guanidine HCl solution containing 0.2 M sodium acetate at pH 4.2 (100 μL). The cleavage products and substrate were separated by reverse phase HPLC. Absorbance was measured at 215 nm, peak areas were determined and percent conversion to product was calculated using relative peak areas. […] IC50 was determined as the inhibitor concentration at 50% inhibition. […] ([S]=substrate concentration in nmol). The data used was generated similarly to that for Ki with the following modifications. The substrate concentrations used were 560, 448, 336, 224, 111 and 56 μM, in the absence of inhibitor.\nKinetic determinations for both HIV PR and FIV PRs were performed at 37° C. at pH 5.25 in duplicate using F-2000 fluorescence spectrophotometer (Hitachi).\nFor FIV PRs, the kinetic data were determined under the similar reaction conditions as for HIV PR."}, "[1]": {"tested_on": "SIVmac251 in 174×CEM cells", "assay": "Ex vivo inhibitor analysis against SIV, p27 antigen ELISA", "type": "cell-based", "protocol": "The results from tissue culture assays against SIV (FIG. 14) and HIV (FIG. 14) were equally encouraging. […] The effectiveness of compound 1200 against HIV was measured by determining the percentage of viable cells remaining in culture over time in the presence and absence of drug (FIG. 14). In the control, HIV caused formation of multinucleated syncytia and 100% cell death by 9 days post infection. However, the cells cultured with 1 μg/ml (1.1 μM) or 5 μg/ml (5.5 μM) of inhibitor 1200 remained 100% viable after 1 month, identical to results obtained in the absence of virus infection. To test for virus in these cultures, supernatants were removed and added to 1×10^5 uninfected MT-2 cells after a 1:5 dilution with fresh CM. […] In contrast, when 2×10^5 infected MT-2 cells that had been treated with compound 1200 for two weeks were removed and replated in fresh medium with or without compound 1200 only MT-2 cells cultured in the absence of compound 1200 were dead within 4 days (data not shown). […] Cultures are being carried continuously in the presence of compound 12 to look for resistance development. Tests are also underway to determine the level of efficacy of the compound against a defined panel of drug-resistant HIVs. […]"}, "feline T-cells": {"tested_on": "feline T-cells", "assay": "Toxicity to feline T-cells in culture", "type": "cell-based", "protocol": "For FIV, the assays were performed in FIV-infected feline T-cells which were cultured in the presence of compound 1200 at different concentrations over the course of 1 month. Each data in FIG. 14 represents the amount of pelletable FIV reverse transcriptase in the culture supernatant. […] Furthermore, this inhibitor was not toxic to feline T-cells. After one month, the drug-treated cultures were split and replated with and without compound 1200.\nThe lymphocytic cell line 104-C1 (provided by C. Grant) was used as the target for infection. Cells were cultured in RPMI-1640 media supplemented with 10% FBS, 200 μM L-Glutamine, 1×MEM-Vitamins, 100 μM Sodium Pyruvate, 1×Non-Essential Amino Acids, 5.5×10−5M b-ME, 50 μg/ml Gentamicin, 50 U/ml human recombinant Interleukin-2 (provided by Hoffmann-LaRoche) and 7.5 μg/ml Concanavalin-A. For inhibitor assessment, 5×10^6 cells were infected with FIV-PPR (4×105 RT units) in 1 mL culture for 2 hr at 37° C. No virus and virus only controls were incubated in a similar manner. The cells were then washed with Hanks-buffered saline solution (HBSS) and resuspended in 10 ml of complete medium. […] The culture supernatants were monitored for the presence of pelletable reverse transcriptase activity at weekly intervals, as follows. […] The paper was then dried and counted on a scintillation counter."}, "uninfected 174×CEM cells": {"tested_on": "uninfected 174×CEM cells", "assay": "Effect on uninfected cells of the SIV assay", "type": "cell-based", "details": "10, 1.0, 0.1 and 0.001 μg/ml", "protocol": "Cells were acutely infected with approximately 400 TCID50 units of SIVmac251 for 90 min at 37° C. The cells were collected by centrifugation, washed twice with medium to remove free virus, then plated in 0.45 ml medium in 48-well tissue culture plates, at 10^5 cells per well. Compound 1200, prepared as a 10 mg/ml stock in DMSO, was then added to final concentrations of 10, 1.0, 0.1, and 0.001 μg/ml final concentrations, in triplicate cultures. Triplicate control cultures received medium only."}, "MT-2 cells": {"tested_on": "MT-2 cells", "assay": "Toxicity to host cells of the HIV assay", "type": "cell-based", "protocol": "The results from tissue culture assays against SIV (FIG. 14) and HIV (FIG. 14) were equally encouraging. […] The effectiveness of compound 1200 against HIV was measured by determining the percentage of viable cells remaining in culture over time in the presence and absence of drug (FIG. 14). In the control, HIV caused formation of multinucleated syncytia and 100% cell death by 9 days post infection. However, the cells cultured with 1 μg/ml (1.1 μM) or 5 μg/ml (5.5 μM) of inhibitor 1200 remained 100% viable after 1 month, identical to results obtained in the absence of virus infection. To test for virus in these cultures, supernatants were removed and added to 1×10^5 uninfected MT-2 cells after a 1:5 dilution with fresh CM. […]\nWEAU-1.6, a kind gift of George Shaw, University of Alabama (^18), a CXCR4 utilizing isolate, was used for all studies. […] For testiing of the antiviral efficacy of compound 1200 in MT-2 were assessed every day using a Olympus (model) inverted microscope equipped with phase contrast objectives. […] A total of 200 cells were counted in each well, and when syncytia were noted, cells were removed and tested for viability by using trypan-blue. Results are expressed as the average of viable cells."}}}
{"compound": "CC(C)[C@H](NC(=O)[C@H](C)NC(=O)OCc1ccccc1)C(=O)N[C@@H](Cc1ccccc1)[C@@H](O)[C@H](O)[C@H](Cc1ccccc1)NC(=O)[C@@H](NC(=O)[C@H](C)NC(=O)OCc1ccccc1)C(C)C", "note": "[Compound 1b]", "values": [{"measurement": "Ki", "setting": "FIV PR", "value": 0.041, "unit": "µM"}, {"measurement": "inhibition of SIV infection in tissue culture (in words)", "setting": "[1]", "value": "strongly inhibits"}, {"measurement": "SIV virus expression, p27 antigen in culture supernatant", "setting": "[1]; 1 μg/ml", "value": "near background"}, {"measurement": "toxicity to cells", "setting": "feline T-cells", "value": "not toxic"}, {"measurement": "effects on uninfected cells", "setting": "uninfected 174×CEM cells", "value": "no effects noted"}, {"measurement": "toxicity to host cells", "setting": "MT-2 cells", "value": "minimal toxicity"}]}
